What was measured:
CCLE cell lines = test: Chemical sensitivity of the CCLE cell line panel; format: cell-based
Protocol: […]. The cell line panel is the one covered by the Cancer Cell Line Encyclopedia (CCLE) initiative (Barretina J., Caponigro G., Stransky N., Venkatesan K., et al. The Cancer Cell Line Encyclopedia enables predictive modeling of anticancer drug sensitivity. Nature 483:603-7, 2012). A detailed genomic, genetic and pharmacologic characterization was conducted on the CCLE cell lines.
p53 mutation status in CCLE cell lines is taken from a data source of gene-level genetic alterations, for example, point-mutations, insertions, deletions and complex genetic alterations, compiled from the Sanger center COSMIC data and internal sources including Exome Capture Sequencing. This comprises data from approximately 1,600 cancer-related genes over the CCLE cell lines.
[…]. […] From such in vitro chemical sensitivity data, the prediction that a cell would be sensitive to an MDM2i treatment was estimated to be 13%. […].

[1] = tested on: p53 wild-type (SJSA-1 and HCT116 p53wt/wt cells) and p53 mutant cell lines (SAOS2 and HCT116 p53-/- cells); test: Cell proliferation inhibition assay (YOPRO); format: cell-based; settings: 72 hours; p53 wild-type vs p53 mutant cell lines
Protocol: Lucern, Switzerland). Briefly, cells are plated in 96-well plates overnight at 37° C. and are treated with increasing concentrations of MDM2i(1) or MDM2i(2) for 72 hours. Cell concentration in each well is then determined using the DNA-interacting fluorescent dye YOPRO according to the manufacturer's instructions and the fluorescent signal is measured using a Gemini-EM standard plate reader (Molecular Devices: Sunnyvale, Calif., USA).

C3A cells = test: Western blot of p53 pathway proteins in C3A cells; format: cell-based; settings: 4 hours
Protocol: (§1) That the biomarkers in Table 2/FIG. 3 are reflective of a functional p53 pathway in MDM2i sensitive cells is verified in FIG. 4. […]. Whole cell lysates were prepared using a cell lysis buffer containing 50 mM Tris-HCl pH 7.5, 120 mM NaCl, 1 mM EDTA, 6 mM EGTA pH 8.5, 1% NP-40, 20 mM NaF, 1 mM PMSF and 0.5 mM Na-Vanadat, proteins were separated on NuPAGE 4-12% Bis-Tris Gel (Invitrogen # NP0322BOX, Lucerne; Switzerland), transferred onto Nitrocellulose Protran® BA 85 membranes (Whatman #10 401 261: Piscataway, N.J., USA) at 1.5 mA/cm^2 membrane for 2 h using a semi-dry blotting system, and immunoblotted with either an anti-phospho-p53 (Ser^15) (1/1000; Cell Signaling Technology #9284: Beverly, Mass., USA) rabbit polyclonal antibody, or an anti-p53 (Ab-6) (Pantropic, clone DO-1,) (1/1000; Calbiochem # OP43 San Diego, Calif., USA), an anti-MDM2 (Ab-1, clone IF2) (1/1000; Calbiochem # OP46), an anti-p21^WAF1(Ab-1, clone EA10) (1/500; Calbiochem # OP64: San Diego, Calif., USA) or an anti-a-Tubulin (Sigma # T5168: St. Louis, Mo., USA) mouse monoclonal antibodies, as indicated. […].

[2] = tested on: SJSA-1 osteosarcoma cells; test: SJSA-1 xenograft tumor growth; format: in vivo, Harlan nude mice; settings: for T/C: 10-day treatment
Protocol: To further validate the predictive biomarkers disclosed in FIG. 3, in vivo human xenograft models either from human primary samples or from cell lines were directly injected and grown in tumors subcutaneously in mice and then assessed for MDM2i sensitivity. All the animals were allowed to adapt for 4 days and housed in a pathogen-controlled environment (5 mice/Type III cage) with access to food and water ad libitum. Animals were identified with transponders. Studies were performed according to procedures covered by permit number 1975 issued by the Kantonales Veterinaramt Basel-Stadt and strictly adhered to the Eidgenössisches Tierschutzgesetz and the Eidgenössische Tierschutzverordnung. Subcutaneous tumors were induced by concentrating 3.0×10^6 SJSA-1 osteosarcoma cells in 100 μl of PBS (without Ca^2+ and Mg^2+) and injecting in the right flank of Harlan nude mice. The administration of MDM2i began 12-14 days post cell injection. MDM2i was prepared immediately before each administration. MDM2i compounds were dissolved in 0.5% HPMC (hydroxypropylmethylcellulose) and were injected daily (q24h) at 25, 50 or 100 mg/kg. Tumor volumes (TVol), determined from caliper measurements (using the formula l×w×h×π/6) were measured three times per week. Tumor response was quantified by the change in tumor volume (endpoint minus starting value in mm^3) as the T/C, i.e.
In the case of a tumor regression, the tumor response was quantified by the percentage of regression of the starting TVoI, i.e.
The body-weight (BW) of the mice was measured three times per week allowing calculation at any particular time-point relative to the day of initiation of treatment (day 0) of both the percentage change in BW (Δ % BW). […].

p21(CDKN1A) [3] = test: p21(CDKN1A) protein in SJSA-1 xenograft tumors (immunohistochemistry); format: in vivo, Harlan nude mice
Protocol: SJSA-1 xenograft tumors were collected and a 3-4 mm slice out of the middle of the tumor was removed, transferred into pre-labelled histo-cassettes and immersion-fixed in neutral buffered formalin (NBF) 10% (v/v) (pH 6.8-7.2) (J. T. Baker, Winter Garden, Fla., USA), pre-cooled at 4° C. Tumors were then fixed at room temperature for 24 hours, followed by processing in the TPC 15Duo (Tissue Processing Center, Medite) for paraffinization. Subsequently, the tumor slices were embedded in paraffin and from each paraffin block several 3 μm thick sections were cut on a rotary microtome (Mikrom International AG, Switzerland), spread in a 48° C. water-bath, mounted on glass slides (SuperFrost Plus, Thermo Scientific:Waltham Mass., USA), and dried in an oven either at 37° C. overnight or at 60° C. for 30 min. Dry tissue section were processed for immunohistochemistry (IHC) staining. p21(CDKN1A) immunohistochemistry has been performed using the mouse monoclonal antibody clone SX118 from Dako (Cat. No. M7202 Dako: Carpenteria Calif., USA) at a dilution of 1:50. Immunohistochemistry has been performed on a Ventana Discovery XT automated immunostainer using the N-Histofine Mousestain Kit (Nichirei Bioscience Inc, Japan) in combination with the DABMap Kit chromogen system, omitting the SA-HRP solution (Ventana/Roche Diagnostics GmbH, Mannheim, Germany). […]

p21(CDKN1A) [4] = test: p21(CDKN1A) mRNA in SJSA-1 xenograft tumors (qRT-PCR); format: in vivo, Harlan nude mice
Protocol: Briefly, total RNA was purified from cell pellets using the QIAshredder® (79654, Qiagen:Valencia Calif., USA) and RNeasy Mini Kit® (74106, Qiagen: Valencia Calif., USA) according to the manufacturer's instructions, with the exception that no DNA digestion was performed. Total RNA was eluted with 50 μL of RNase-free water. Total RNA was quantitated using the spectrophotometer ND-1000 Nanodrop® (Wilmington Del., USA). The qRT-PCR (Quantitative Reverse Transcriptase Polymerase Chain Reaction) was set up in triplicate per sample using the One-Step RT qPCR Master Mix Plus (RT-QPRT-032X, Eurogentec: Seraing, Belgium), with either control primers and primers for human p21(CDKN1A) (Hs00355782_m1, Applied Biosystems: Carlsbad Calif., USA) or mouse p21(CDKN1A) (Mm00432448_m1, Applied Biosystems: Carlsbad Calif., USA), namely TaqMan Gene Expression kit assays (20× probe dye FAM™ (or VIC)-TAMRA (or MGB); Applied Biosystems: Carlsbad Calif., USA). […] The number of cycles (CT) was determined, 2^−CT values were calculated, and the value normalized by dividing with the 2^−CT value obtained from the GAPDH control. Fold increase over control (i.e. DMSO- or vehicle-treated animals) was calculated and plotted in the bar graph.

COLO 792 cells = test: Western blot of p53 pathway proteins in COLO 792 cells; format: cell-based; settings: 4 hours
Protocol: as §1

human normal fibroblasts = settings: cited from earlier work
SJSA-1 osteosarcoma line = settings: SJSA-1, amplified copies of the MDM2 gene; cited from earlier work
SJSA-1 cell line = settings: SJSA-1 xenografts in mouse; cited from earlier work
mouse normal fibroblasts = settings: cited from earlier work
[5] = C3A cells, increasing concentrations
[6] = COLO 792 cells, increasing concentrations

| Structure (SMILES) | number of insensitive cell lines (CCLE cell lines; CCLE panel) | number of sensitive cell lines (CCLE cell lines; CCLE panel) | sensitivity of p53 mutated cell lines (CCLE cell lines; p53 mutated CCLE cell lines) | sensitivity of p53 wild type cell lines (CCLE cell lines; p53 wild type CCLE cell lines) | tumor cell proliferation [1] | p53 protein levels (C3A cells; [5]) | phospho-p53 (C3A cells; [5]) | expression of p53 target genes p21(CDKN1A) and MDM2 (C3A cells; C3A sensitive cells) | T/C ([2]; 25 mg/kg q24h) [%] | T/C ([2]; 50 mg/kg q24h) [%] | tumor regression ([2]; 100 mg/kg q24h for 10 days) [%] | p21(CDKN1A) protein levels in tumors (p21(CDKN1A) [3]) | p21(CDKN1A) mRNA levels in tumors (p21(CDKN1A) [4]) | p53 protein levels (COLO 792 cells; [6]) | phospho-p53 (COLO 792 cells; [6]) | expression of p53 target genes p21(CDKN1A) and MDM2 (COLO 792 cells; COLO-792 insensitive cell line) | proliferation and viability of non-cancerous cells (human normal fibroblasts) | proliferation and apoptosis (SJSA-1 osteosarcoma line) | reduction of xenograft growth (SJSA-1 cell line) [%] | proliferation and viability of non-cancerous cells (mouse normal fibroblasts) |
| --- | --- | --- | --- | --- | --- | --- | --- | --- | --- | --- | --- | --- | --- | --- | --- | --- | --- | --- | --- | --- |
| COc1cc2c(cc1OC(C)C)[C@H](c1ccc(Cl)cc1)N(c1ccc(N(C)C[C@H]3CC[C@H](N4CCNC(=O)C4)CC3)cc1)C(=O)C2 [MDM2i(2)] | 309 | 47 | majority of p53 mutated cell lines are found insensitive | more than two-third of p53 wild type cell lines are sensitive | hampering tumor cell proliferation in a p53-dependent manner |  |  |  |  |  |  |  |  |  |  |  |  |  |  |  |
| COc1cc2c(cc1OC(C)C)[C@H](c1ccc(Cl)cc1)N(c1ccc(N(C)C[C@H]3CC[C@H](N4CCN(C)C(=O)C4)CC3)cc1)C(=O)C2 [MDM2i(1)] |  |  |  |  | hampering tumor cell proliferation in a p53-dependent manner | induces stabilization of p53 protein levels | no significant increase of phospho-p53 | induces a strong de novo expression of both p53 target genes p21(CDKN1A) and MDM2 | 50 | 3 | 65 | significant dose-dependent induction of p21(CDKN1A) protein levels in tumors | significant dose-dependent induction of p21(CDKN1A) mRNA levels in tumors | induces stabilization of p53 protein levels | no significant increase of phospho-p53 | not in COLO-792 insensitive cell line |  |  |  |  |
| COc1ccc(C2=N[C@@H](c3ccc(Cl)cc3)[C@@H](c3ccc(Cl)cc3)N2C(=O)N2CCNC(=O)C2)c(OC(C)C)c1 [Nutlin-3] |  |  |  |  |  |  |  |  |  |  |  |  |  |  |  |  | the proliferation of the cells was slowed, they retained their viability | reduced proliferation and increased apoptosis | 90 | the proliferation of the cells was slowed, they retained their viability |
